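Exposure lasted 48 hours, with cells grown in 96-well plates and compounds tested at five concentrations. GI50 = concentration required for 50% inhibition of growth. TGI marks complete inhibition of growth.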
Columns and labels:
Assay in all cases: growth of human tumour cells (NCI), 48 h
T-47D breast = system: T-47D breast
HCT-15 colon = system: HCT-15 colon
M14 melanoma = system: M14 melanoma
HCT-116 colon = system: HCT-116 colon
NCI-H460 lung = system: NCI-H460 lung
LOX IMVI melanoma = system: LOX IMVI melanoma
SK-OV-3 ovarian = system: SK-OV-3 ovarian
K-562 leukemia = system: K-562 leukemia
PC-3 prostate = system: PC-3 prostate
IGROV1 ovarian = system: IGROV1 ovarian
OVCAR-5 ovarian = system: OVCAR-5 ovarian
SF-268 CNS = system: SF-268 CNS
U251 CNS = system: U251 CNS
UACC-62 melanoma = system: UACC-62 melanoma
OVCAR-3 ovarian = system: OVCAR-3 ovarian
SF-539 CNS = system: SF-539 CNS
MCF7 breast = system: MCF7 breast
HL-60(TB) leukemia = system: HL-60(TB) leukemia
SN12C renal = system: SN12C renal
RXF 393 renal = system: RXF 393 renal
DU-145 prostate = system: DU-145 prostate
KM12 colon = system: KM12 colon
OVCAR-4 ovarian = system: OVCAR-4 ovarian
HS 578T breast = system: HS 578T breast
A498 renal = system: A498 renal
SK-MEL-2 melanoma = system: SK-MEL-2 melanoma
UACC-257 melanoma = system: UACC-257 melanoma
TK-10 renal = system: TK-10 renal
SNB-75 CNS = system: SNB-75 CNS
SNB-19 CNS = system: SNB-19 CNS
SF-295 CNS = system: SF-295 CNS
MDA-MB-231 breast = system: MDA-MB-231 breast
SK-MEL-28 melanoma = system: SK-MEL-28 melanoma
CAKI-1 renal = system: CAKI-1 renal
EKVX NSCLC = system: EKVX NSCLC
786-0 renal = system: 786-0 renal
BT-549 breast = system: BT-549 breast
SW-620 colon = system: SW-620 colon
ACHN renal = system: ACHN renal
HOP-92 NSCLC = system: HOP-92 NSCLC
NCI-H522 lung = system: NCI-H522 lung
OVCAR-8 ovarian = system: OVCAR-8 ovarian
HOP-62 NSCLC = system: HOP-62 NSCLC
A549 NSCLC = system: A549 NSCLC
MDA-MB-435 = system: MDA-MB-435
HT29 colon = system: HT29 colon
UO-31 renal = system: UO-31 renal
SK-MEL-5 melanoma = system: SK-MEL-5 melanoma
MALME-3M melanoma = system: MALME-3M melanoma
COLO 205 colon = system: COLO 205 colon
NCI/ADR-RES ovarian = system: NCI/ADR-RES ovarian
NCI-H226 lung = system: NCI-H226 lung
NCI-H23 lung = system: NCI-H23 lung
HCC-2998 colon = system: HCC-2998 colon
RPMI-8226 leukemia = system: RPMI-8226 leukemia
MOLT-4 leukemia = system: MOLT-4 leukemia

CCOC(=O)C1=C(C)NC(=O)NC1c1ccc(N(CCCl)CCCl)cc1Cl (centres undefined)
TGI (T-47D breast): 19.5 µM
TGI (HCT-15 colon): 30.8 µM
TGI (M14 melanoma): 29.2 µM
TGI (HCT-116 colon): 27.4 µM
TGI (NCI-H460 lung): 25.6 µM
TGI (LOX IMVI melanoma): 29.4 µM
TGI (SK-OV-3 ovarian): 33.6 µM
TGI (K-562 leukemia): 24.3 µM
TGI (PC-3 prostate): 28.5 µM
TGI (IGROV1 ovarian): 28.4 µM
TGI (OVCAR-5 ovarian): 31.8 µM
TGI (SF-268 CNS): 28.8 µM
TGI (U251 CNS): 30.2 µM
TGI (UACC-62 melanoma): 22.4 µM
TGI (OVCAR-3 ovarian): 28.8 µM
TGI (SF-539 CNS): 30.9 µM
TGI (MCF7 breast): 26.5 µM
TGI (HL-60(TB) leukemia): 13.4 µM
TGI (SN12C renal): 29.8 µM
TGI (RXF 393 renal): 30.8 µM
TGI (DU-145 prostate): 32.1 µM
TGI (KM12 colon): 33.9 µM
TGI (OVCAR-4 ovarian): 33.1 µM
TGI (HS 578T breast): 36.1 µM
TGI (A498 renal): 29.4 µM
TGI (SK-MEL-2 melanoma): 29.8 µM
TGI (UACC-257 melanoma): 29.5 µM
TGI (TK-10 renal): 33.6 µM
TGI (SNB-75 CNS): 28.1 µM
TGI (SNB-19 CNS): 31.2 µM
TGI (SF-295 CNS): 29.2 µM
TGI (MDA-MB-231 breast): 26.5 µM
TGI (SK-MEL-28 melanoma): 31.4 µM
TGI (CAKI-1 renal): 30.9 µM
TGI (EKVX NSCLC): 45.8 µM
TGI (786-0 renal): 29.2 µM
TGI (BT-549 breast): 28.9 µM
TGI (SW-620 colon): 31.8 µM
TGI (ACHN renal): 27.5 µM
TGI (HOP-92 NSCLC): 25.7 µM
TGI (NCI-H522 lung): 26.4 µM
TGI (OVCAR-8 ovarian): 25.6 µM
TGI (HOP-62 NSCLC): 28.5 µM
TGI (A549 NSCLC): 26.6 µM
TGI (MDA-MB-435): 33.1 µM
TGI (HT29 colon): 29.5 µM
TGI (UO-31 renal): 27.3 µM
TGI (SK-MEL-5 melanoma): 27.8 µM
TGI (MALME-3M melanoma): 28.1 µM
TGI (COLO 205 colon): 32.6 µM
TGI (NCI/ADR-RES ovarian): 30.3 µM
TGI (NCI-H226 lung): 28.8 µM
TGI (NCI-H23 lung): 32.7 µM

O=C(Cc1n[nH]c(=O)c2ccccc12)OCc1c(Cl)cccc1Cl
GI50 (T-47D breast): 24.6 µM
TGI (T-47D breast): > 100 µM
GI50 (HCT-15 colon): 1.74 µM
TGI (HCT-15 colon): > 100 µM
GI50 (M14 melanoma): > 100 µM
TGI (M14 melanoma): > 100 µM
GI50 (HCT-116 colon): 3.64 µM
TGI (HCT-116 colon): > 100 µM
GI50 (NCI-H460 lung): 2.39 µM
TGI (NCI-H460 lung): > 100 µM
GI50 (LOX IMVI melanoma): 5.16 µM
TGI (LOX IMVI melanoma): > 100 µM
GI50 (SK-OV-3 ovarian): 12.8 µM
TGI (SK-OV-3 ovarian): > 100 µM
GI50 (HCC-2998 colon): 50.4 µM
TGI (HCC-2998 colon): > 100 µM
GI50 (K-562 leukemia): 4.19 µM
TGI (K-562 leukemia): > 100 µM
GI50 (IGROV1 ovarian): > 100 µM
TGI (IGROV1 ovarian): > 100 µM
GI50 (OVCAR-5 ovarian): > 100 µM
TGI (OVCAR-5 ovarian): > 100 µM
GI50 (SF-268 CNS): 9.21 µM
TGI (SF-268 CNS): > 100 µM
GI50 (U251 CNS): 8.39 µM
TGI (U251 CNS): > 100 µM
GI50 (UACC-62 melanoma): 8.55 µM
TGI (UACC-62 melanoma): > 100 µM
GI50 (RPMI-8226 leukemia): 82.4 µM
TGI (RPMI-8226 leukemia): > 100 µM
GI50 (OVCAR-3 ovarian): 41.9 µM
TGI (OVCAR-3 ovarian): > 100 µM
GI50 (SF-539 CNS): 10.1 µM
TGI (SF-539 CNS): > 100 µM
GI50 (MCF7 breast): > 100 µM
TGI (MCF7 breast): > 100 µM
GI50 (HL-60(TB) leukemia): 6.53 µM
TGI (HL-60(TB) leukemia): > 100 µM
GI50 (SN12C renal): > 100 µM
TGI (SN12C renal): > 100 µM
GI50 (RXF 393 renal): 24.1 µM
TGI (RXF 393 renal): 68.3 µM
GI50 (DU-145 prostate): 53.4 µM
TGI (DU-145 prostate): > 100 µM
GI50 (KM12 colon): 24.2 µM
TGI (KM12 colon): > 100 µM
GI50 (OVCAR-4 ovarian): > 100 µM
TGI (OVCAR-4 ovarian): > 100 µM
GI50 (HS 578T breast): 17.4 µM
TGI (HS 578T breast): > 100 µM
GI50 (A498 renal): > 100 µM
TGI (A498 renal): > 100 µM
GI50 (SK-MEL-2 melanoma): > 100 µM
TGI (SK-MEL-2 melanoma): > 100 µM
GI50 (UACC-257 melanoma): > 100 µM
TGI (UACC-257 melanoma): > 100 µM
GI50 (TK-10 renal): 41 µM
TGI (TK-10 renal): > 100 µM
GI50 (SNB-75 CNS): 25.8 µM
TGI (SNB-75 CNS): > 100 µM
GI50 (SNB-19 CNS): 15.6 µM
TGI (SNB-19 CNS): > 100 µM
GI50 (MDA-MB-231 breast): 69.8 µM
TGI (MDA-MB-231 breast): > 100 µM
GI50 (SK-MEL-28 melanoma): > 100 µM
TGI (SK-MEL-28 melanoma): > 100 µM
GI50 (CAKI-1 renal): 26.2 µM
TGI (CAKI-1 renal): > 100 µM
GI50 (EKVX NSCLC): > 100 µM
TGI (EKVX NSCLC): > 100 µM
GI50 (786-0 renal): 15.1 µM
TGI (786-0 renal): > 100 µM
GI50 (BT-549 breast): 16.3 µM
TGI (BT-549 breast): > 100 µM
GI50 (SW-620 colon): 49.8 µM
TGI (SW-620 colon): > 100 µM
GI50 (ACHN renal): 82 µM
TGI (ACHN renal): > 100 µM
GI50 (MOLT-4 leukemia): 4.07 µM
TGI (MOLT-4 leukemia): > 100 µM
GI50 (HOP-92 NSCLC): > 100 µM
TGI (HOP-92 NSCLC): > 100 µM
GI50 (NCI-H522 lung): > 100 µM
TGI (NCI-H522 lung): > 100 µM
GI50 (OVCAR-8 ovarian): 36.5 µM
TGI (OVCAR-8 ovarian): > 100 µM
GI50 (A549 NSCLC): > 100 µM
TGI (A549 NSCLC): > 100 µM
GI50 (MDA-MB-435): > 100 µM
TGI (MDA-MB-435): > 100 µM
GI50 (HT29 colon): 15.6 µM
TGI (HT29 colon): > 100 µM
GI50 (UO-31 renal): > 100 µM
TGI (UO-31 renal): > 100 µM
GI50 (SK-MEL-5 melanoma): 4.18 µM
TGI (SK-MEL-5 melanoma): > 100 µM
GI50 (MALME-3M melanoma): 48.5 µM
TGI (MALME-3M melanoma): > 100 µM
GI50 (COLO 205 colon): 5.63 µM
TGI (COLO 205 colon): > 100 µM
GI50 (NCI/ADR-RES ovarian): 93.6 µM
TGI (NCI/ADR-RES ovarian): > 100 µM
GI50 (NCI-H226 lung): 9.97 µM
TGI (NCI-H226 lung): > 100 µM
GI50 (NCI-H23 lung): > 100 µM
TGI (NCI-H23 lung): > 100 µM

Source: PubChem BioAssay (NCI)
